# Data reported in BindingDB's records for doi:10.1021/acs.jmedchem.3c00963 (n/a, 2023).
# Biological target: Dual specificity protein kinase TTK (Mus musculus) (UniProt P35761)
# Assay: Inhibition of mouse MPS1
# Sequence of Dual specificity protein kinase TTK (Mus musculus) (P35761 whole entry, looked up): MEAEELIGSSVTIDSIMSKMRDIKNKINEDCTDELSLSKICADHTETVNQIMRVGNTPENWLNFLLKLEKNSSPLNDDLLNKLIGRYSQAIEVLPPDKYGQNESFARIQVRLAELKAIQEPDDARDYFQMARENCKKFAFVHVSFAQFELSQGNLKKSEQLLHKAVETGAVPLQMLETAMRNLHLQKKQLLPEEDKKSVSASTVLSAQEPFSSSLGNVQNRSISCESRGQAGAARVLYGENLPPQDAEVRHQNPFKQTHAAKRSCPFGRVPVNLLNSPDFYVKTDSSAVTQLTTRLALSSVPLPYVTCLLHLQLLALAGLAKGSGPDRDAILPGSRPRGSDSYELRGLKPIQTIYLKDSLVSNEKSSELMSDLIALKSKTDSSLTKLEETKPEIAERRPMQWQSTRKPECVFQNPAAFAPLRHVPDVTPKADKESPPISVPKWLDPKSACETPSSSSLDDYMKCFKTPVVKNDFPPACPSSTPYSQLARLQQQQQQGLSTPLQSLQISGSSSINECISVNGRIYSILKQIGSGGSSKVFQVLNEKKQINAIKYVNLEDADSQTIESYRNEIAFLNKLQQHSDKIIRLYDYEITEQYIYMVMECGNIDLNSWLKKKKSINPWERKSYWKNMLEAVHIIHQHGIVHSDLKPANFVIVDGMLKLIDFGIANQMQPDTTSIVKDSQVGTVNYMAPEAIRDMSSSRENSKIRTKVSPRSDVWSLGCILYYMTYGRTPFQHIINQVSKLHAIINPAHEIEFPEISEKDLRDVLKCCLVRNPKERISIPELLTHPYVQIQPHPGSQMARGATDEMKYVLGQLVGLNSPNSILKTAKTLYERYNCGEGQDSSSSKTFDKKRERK
row,IC50 [nM],SMILES
1,55,CC(C)CNc1nccn2c(-c3ccc(C(=O)NC4CC4)cc3)cnc12
2,9,CC(C)CNc1nc(-c2cccc3ncccc23)cn2c(-c3ccc(C(=O)NC4CC4)cc3)cnc12
